Patent US20030186334A1, “KTS-disintegrins” (Temple University - Of the Commonwealth System of Higher …, priority 2001, published 2003)

Columns and labels:
HMVECs = experiment: endothelial cell tube formation assay on Matrigel; assay type: cell-based, human; settings: 60 μM, 24 hours
Protocol: An endothelial cell tube formation assay was performed to assess the anti-angiogenic effect of obtustatin in vitro as follows. Twenty-four well plates were coated with a 1:2 dilution of Matrigel™ in EBM-2 medium, which was polymerized by incubation for 1 hour at 37° C. HMVECs (1.2×10^5 cells per well) were added onto the polymerized Matrigel™ (BD Biosciences, Lexington, Ky.) in EBM-2 medium, in the absence or presence of 60 μM obtustatin. The plates were incubated for 24 hours at 37° C., and analyzed for the extent of tube formation by observation with an inverted microscope, using a magnification of 10× ocular and 10× objective.

MV3 human melanoma cells = experiment: MV3 melanoma cell migration through HUVEC layer; assay type: cell-based; settings: 3 hours
Protocol: Cell migration through an endothelial cell layer is an important event in cancer cell metastasis. The effect of obtustatin on melanoma cell migration through an endothelial cell layer in vitro was evaluated as follows. Human umbilical vein endothelial cells (HUVECs) of 3-7 passages were purchased from Cascade Biologics (Portland, Oreg.). The HUVECs were seeded into 8.0 μm pore size FALCON® HTS FluoroBlok™ inserts (Becton Dickinson, Franklin Lakes, N.J.) in serum-containing endothelial cell growth medium. The inserts were placed into the wells of a 24-well plate (Becton-Dickinson), and the HUVECs allowed to grow to confluence on the insert over 72 hours. The interior of the FluoroBlok™ inserts is referred to below as the “upper chamber,” and the interior of the well in which the insert sits is referred to as the “lower chamber.”
Twenty-four hours before the assay, the upper chambers were washed with serum-free medium, and new medium containing TNF-α (3 ng/ml) was added to activate the HUVECs. […] After 3 hours incubation at 37° C. in 5% CO2, the extent of MV3 migration into the bottom chambers was assessed using a bottom-reading Cytofluor 2350 (Millipore Inc., Bedford Mass.). The amount of fluorescence in the lower chambers is directly related to the number of MV3 cells which have migrated through the HUVEC layer from the upper chamber. […]

α9β1 integrin = target: T1, α9β1 integrin (Homo sapiens, UniProt P05556+Q13797); experiment: adhesion of SW480α9 cells to VCAM-1; assay type: cell-based; settings: α9β1, VCAM-1
T1 construct: expressed in transfected cells; host or cells: SW480α9 cells
T1 sequence (Q13797 30-1035): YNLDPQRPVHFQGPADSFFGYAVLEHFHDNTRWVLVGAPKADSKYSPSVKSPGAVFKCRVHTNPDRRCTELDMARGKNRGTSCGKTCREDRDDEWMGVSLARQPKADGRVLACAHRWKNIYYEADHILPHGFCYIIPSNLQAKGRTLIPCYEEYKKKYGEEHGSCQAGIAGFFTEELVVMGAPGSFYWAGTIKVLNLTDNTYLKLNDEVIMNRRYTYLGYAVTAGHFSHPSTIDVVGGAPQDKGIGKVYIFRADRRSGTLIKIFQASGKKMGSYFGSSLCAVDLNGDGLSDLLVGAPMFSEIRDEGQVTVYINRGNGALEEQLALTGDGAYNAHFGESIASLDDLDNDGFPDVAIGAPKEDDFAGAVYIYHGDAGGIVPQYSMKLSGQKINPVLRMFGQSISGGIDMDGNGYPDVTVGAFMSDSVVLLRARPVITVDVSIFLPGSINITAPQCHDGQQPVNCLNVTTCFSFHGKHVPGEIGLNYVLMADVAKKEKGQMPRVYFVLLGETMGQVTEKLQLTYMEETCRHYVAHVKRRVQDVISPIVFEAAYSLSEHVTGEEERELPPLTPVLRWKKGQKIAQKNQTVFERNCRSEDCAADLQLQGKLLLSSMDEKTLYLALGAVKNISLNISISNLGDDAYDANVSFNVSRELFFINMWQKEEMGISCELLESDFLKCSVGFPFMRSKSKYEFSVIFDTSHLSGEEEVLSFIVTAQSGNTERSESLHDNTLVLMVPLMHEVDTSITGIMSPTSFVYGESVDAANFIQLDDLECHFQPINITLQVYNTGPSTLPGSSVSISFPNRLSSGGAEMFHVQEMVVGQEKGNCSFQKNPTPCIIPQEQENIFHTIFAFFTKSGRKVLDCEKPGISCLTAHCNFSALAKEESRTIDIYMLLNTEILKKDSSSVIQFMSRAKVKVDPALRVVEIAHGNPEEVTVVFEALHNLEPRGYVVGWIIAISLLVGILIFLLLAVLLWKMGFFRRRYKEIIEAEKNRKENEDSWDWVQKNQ
T1 sequence (P05556 21-798): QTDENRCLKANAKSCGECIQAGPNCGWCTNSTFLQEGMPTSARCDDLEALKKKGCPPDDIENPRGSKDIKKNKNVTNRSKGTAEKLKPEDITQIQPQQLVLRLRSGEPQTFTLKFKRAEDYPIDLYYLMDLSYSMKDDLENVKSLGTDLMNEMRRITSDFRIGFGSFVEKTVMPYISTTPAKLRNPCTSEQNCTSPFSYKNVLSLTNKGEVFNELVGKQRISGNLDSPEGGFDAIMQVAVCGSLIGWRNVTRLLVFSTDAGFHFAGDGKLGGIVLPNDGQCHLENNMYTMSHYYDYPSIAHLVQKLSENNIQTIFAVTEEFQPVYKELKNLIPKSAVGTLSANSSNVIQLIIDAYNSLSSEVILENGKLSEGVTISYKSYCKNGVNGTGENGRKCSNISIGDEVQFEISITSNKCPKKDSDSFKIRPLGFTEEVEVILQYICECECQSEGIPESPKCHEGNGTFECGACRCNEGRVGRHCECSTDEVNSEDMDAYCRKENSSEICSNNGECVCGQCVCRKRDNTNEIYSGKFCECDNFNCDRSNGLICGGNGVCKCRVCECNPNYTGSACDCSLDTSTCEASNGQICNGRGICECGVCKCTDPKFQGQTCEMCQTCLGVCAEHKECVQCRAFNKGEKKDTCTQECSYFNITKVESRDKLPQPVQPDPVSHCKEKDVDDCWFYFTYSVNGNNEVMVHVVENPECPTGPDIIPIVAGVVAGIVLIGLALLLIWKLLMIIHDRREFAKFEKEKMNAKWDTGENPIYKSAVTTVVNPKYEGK

[1] = system: human melanoma cells (MV3); experiment: apoptosis by caspase-3 levels in melanoma MV3 cells; assay type: cell-based
Protocol: The mechanisms of the cancer-suppressing effect observed for obtustatin were investigated as follows. Dermal microvascular endothelial cells (EC) and human melanoma cells (MV3) were cultured and exposed to TNF-α, vincristine and obtustatin. (TNF-α and vincristine are compounds which induce cell death by apoptosis in both normal and cancerous cells.) Control cells received only vehicle. The extent of apoptosis was measured by determining caspase-3 levels.

α1β1 integrin = target: T2, α1β1 integrin (Homo sapiens, UniProt P05556+P56199); experiment: adhesion of HS.939T cells to collagen IV; assay type: cell-based; settings: α1β1, Coll IV
T2 construct: expressed in transfected cells; host or cells: α1K562 cells
T2 sequence (P56199 29-1179): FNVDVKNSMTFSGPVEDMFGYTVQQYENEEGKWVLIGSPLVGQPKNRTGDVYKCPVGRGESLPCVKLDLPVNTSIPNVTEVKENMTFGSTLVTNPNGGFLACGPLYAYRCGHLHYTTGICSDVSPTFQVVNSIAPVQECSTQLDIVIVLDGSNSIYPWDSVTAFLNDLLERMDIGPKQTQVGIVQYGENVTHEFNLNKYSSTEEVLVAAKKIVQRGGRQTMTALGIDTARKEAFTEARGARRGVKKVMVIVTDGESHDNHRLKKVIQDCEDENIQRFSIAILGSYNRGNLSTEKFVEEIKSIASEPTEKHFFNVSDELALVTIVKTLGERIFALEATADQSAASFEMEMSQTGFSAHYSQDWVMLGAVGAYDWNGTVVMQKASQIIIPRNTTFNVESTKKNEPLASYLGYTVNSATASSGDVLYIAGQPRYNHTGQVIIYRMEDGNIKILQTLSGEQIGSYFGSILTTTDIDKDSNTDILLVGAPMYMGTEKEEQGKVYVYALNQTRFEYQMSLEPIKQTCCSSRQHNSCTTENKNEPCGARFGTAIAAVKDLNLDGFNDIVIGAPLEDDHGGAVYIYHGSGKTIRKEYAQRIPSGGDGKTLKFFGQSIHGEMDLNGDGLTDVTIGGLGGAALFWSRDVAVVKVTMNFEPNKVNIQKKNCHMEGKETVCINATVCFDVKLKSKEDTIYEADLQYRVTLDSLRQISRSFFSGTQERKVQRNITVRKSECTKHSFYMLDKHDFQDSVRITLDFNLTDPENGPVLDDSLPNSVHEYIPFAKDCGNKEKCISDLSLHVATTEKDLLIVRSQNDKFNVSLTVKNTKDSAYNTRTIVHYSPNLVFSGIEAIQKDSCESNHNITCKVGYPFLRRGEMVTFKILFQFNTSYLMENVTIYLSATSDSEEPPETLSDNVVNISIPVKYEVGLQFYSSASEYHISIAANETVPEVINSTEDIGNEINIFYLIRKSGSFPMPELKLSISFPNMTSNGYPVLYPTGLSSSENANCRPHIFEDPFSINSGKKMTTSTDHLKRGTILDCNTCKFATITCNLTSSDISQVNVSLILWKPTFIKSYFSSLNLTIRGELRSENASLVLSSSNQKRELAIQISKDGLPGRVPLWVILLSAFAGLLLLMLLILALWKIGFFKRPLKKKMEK
T2 sequence (P05556 21-798): as the sequence (P05556 21-798) above

αvβ3 integrin = target: T3, αvβ3 integrin (Homo sapiens, UniProt P05106+P06756); experiment: adhesion of JY cells to vitronectin; assay type: cell-based; settings: αvβ3, VN
T3 construct: endogenous in cells; host or cells: JY cells
T3 sequence (P06756 31-889 limits assumed): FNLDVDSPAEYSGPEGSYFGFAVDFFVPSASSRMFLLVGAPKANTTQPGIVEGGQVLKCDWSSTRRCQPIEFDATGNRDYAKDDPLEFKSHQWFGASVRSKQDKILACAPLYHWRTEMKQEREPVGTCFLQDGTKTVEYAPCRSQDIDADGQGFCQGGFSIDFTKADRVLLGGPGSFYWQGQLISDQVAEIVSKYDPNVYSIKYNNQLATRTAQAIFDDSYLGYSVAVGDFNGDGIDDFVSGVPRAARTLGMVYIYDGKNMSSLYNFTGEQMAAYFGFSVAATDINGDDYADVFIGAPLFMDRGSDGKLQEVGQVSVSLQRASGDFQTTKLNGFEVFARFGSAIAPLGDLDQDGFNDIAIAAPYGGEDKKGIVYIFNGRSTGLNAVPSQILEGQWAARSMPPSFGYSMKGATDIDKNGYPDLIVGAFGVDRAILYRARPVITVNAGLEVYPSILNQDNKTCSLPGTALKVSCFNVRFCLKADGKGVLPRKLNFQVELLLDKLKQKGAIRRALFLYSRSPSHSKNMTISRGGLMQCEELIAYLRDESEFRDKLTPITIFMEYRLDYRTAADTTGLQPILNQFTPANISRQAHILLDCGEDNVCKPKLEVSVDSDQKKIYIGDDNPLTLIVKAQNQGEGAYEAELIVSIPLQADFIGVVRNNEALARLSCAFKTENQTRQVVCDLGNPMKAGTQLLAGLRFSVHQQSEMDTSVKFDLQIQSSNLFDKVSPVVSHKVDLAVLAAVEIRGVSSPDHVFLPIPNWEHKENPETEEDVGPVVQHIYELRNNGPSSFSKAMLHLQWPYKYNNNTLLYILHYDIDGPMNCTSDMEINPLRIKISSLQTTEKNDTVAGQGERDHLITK
T3 sequence (P06756 891-1048 partner limits assumed): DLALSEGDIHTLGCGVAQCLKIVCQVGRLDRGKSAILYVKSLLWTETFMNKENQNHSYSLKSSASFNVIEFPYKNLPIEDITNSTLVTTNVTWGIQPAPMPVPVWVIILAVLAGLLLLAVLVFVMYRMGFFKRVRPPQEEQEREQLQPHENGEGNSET
T3 sequence (P05106 27-788): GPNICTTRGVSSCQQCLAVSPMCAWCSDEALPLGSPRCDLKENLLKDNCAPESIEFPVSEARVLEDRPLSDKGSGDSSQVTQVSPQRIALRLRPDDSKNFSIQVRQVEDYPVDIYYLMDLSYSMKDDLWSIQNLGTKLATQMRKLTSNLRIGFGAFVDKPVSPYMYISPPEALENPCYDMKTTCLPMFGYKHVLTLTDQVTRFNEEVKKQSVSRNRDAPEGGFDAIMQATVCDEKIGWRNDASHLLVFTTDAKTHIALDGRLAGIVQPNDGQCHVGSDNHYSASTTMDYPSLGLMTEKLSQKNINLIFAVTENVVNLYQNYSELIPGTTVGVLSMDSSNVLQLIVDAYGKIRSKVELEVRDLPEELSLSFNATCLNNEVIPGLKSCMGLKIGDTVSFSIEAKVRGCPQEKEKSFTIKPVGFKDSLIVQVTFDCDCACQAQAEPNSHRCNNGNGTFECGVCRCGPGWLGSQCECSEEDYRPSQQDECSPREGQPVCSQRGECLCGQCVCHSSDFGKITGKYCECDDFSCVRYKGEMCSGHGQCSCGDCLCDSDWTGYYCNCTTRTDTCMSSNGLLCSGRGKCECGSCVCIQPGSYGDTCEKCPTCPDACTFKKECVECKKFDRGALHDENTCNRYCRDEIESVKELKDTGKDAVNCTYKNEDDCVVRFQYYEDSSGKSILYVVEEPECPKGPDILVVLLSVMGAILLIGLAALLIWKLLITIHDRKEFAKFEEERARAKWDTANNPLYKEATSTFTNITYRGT

melanoma cells (HS.939T) = experiment: BrdU incorporation growth assay in HS.939T melanoma cells; assay type: cell-based, human; settings: 2 μM
Protocol: Human microvascular endothelial cells (HMVECs) and melanoma cells (HS.939T) were cultured and treated with vehicle (control), 2 μM obtustatin, 2 μM echistatin or 50 ng/ml TNF-α. Growth of the cells was determined by a standard BrdU incorporation assay (Chemicon), according to the manufacturer's instructions.

Obtustatin (CTTGPCCRQCKLKPAGTTCWKTSLTSHYCTGKSCDCPLYPG)
formation of HMVEC tubes on Matrigel (HMVECs): completely abolished | migration of MV3 cells through the HUVEC layer (MV3 human melanoma cells; collagen IV or FGF as chemoattractants, 0 to 500 nM): inhibited migration | concentration giving essentially complete inhibition of MV3 cell migration (MV3 human melanoma cells; through HUVEC layer): above 200 nM | IC50 (α9β1 integrin): > 10 µM | apoptosis (caspase-3) [1]: not in MV3 cells | IC50 (α1β1 integrin): 0.0001 µM | IC50 (αvβ3 integrin): > 10 µM | growth (BrdU incorporation) (melanoma cells (HS.939T)): not the HS.939T melanoma cells
